Laboratory results taken from patent US20170052170A1, “NOVEL CELL LINES AND METHODS” (priority 2009, published 2017).

Biological target: T1, umami taste receptor (T1R1/T1R3) (Homo sapiens, UniProt Q7RTX0+Q7RTX1, C757R)
T1 construct: expressed in transfected cells; host or cells: HEK293T (ATCC CRL-11268)
T1 sequence (Q7RTX1 21-841): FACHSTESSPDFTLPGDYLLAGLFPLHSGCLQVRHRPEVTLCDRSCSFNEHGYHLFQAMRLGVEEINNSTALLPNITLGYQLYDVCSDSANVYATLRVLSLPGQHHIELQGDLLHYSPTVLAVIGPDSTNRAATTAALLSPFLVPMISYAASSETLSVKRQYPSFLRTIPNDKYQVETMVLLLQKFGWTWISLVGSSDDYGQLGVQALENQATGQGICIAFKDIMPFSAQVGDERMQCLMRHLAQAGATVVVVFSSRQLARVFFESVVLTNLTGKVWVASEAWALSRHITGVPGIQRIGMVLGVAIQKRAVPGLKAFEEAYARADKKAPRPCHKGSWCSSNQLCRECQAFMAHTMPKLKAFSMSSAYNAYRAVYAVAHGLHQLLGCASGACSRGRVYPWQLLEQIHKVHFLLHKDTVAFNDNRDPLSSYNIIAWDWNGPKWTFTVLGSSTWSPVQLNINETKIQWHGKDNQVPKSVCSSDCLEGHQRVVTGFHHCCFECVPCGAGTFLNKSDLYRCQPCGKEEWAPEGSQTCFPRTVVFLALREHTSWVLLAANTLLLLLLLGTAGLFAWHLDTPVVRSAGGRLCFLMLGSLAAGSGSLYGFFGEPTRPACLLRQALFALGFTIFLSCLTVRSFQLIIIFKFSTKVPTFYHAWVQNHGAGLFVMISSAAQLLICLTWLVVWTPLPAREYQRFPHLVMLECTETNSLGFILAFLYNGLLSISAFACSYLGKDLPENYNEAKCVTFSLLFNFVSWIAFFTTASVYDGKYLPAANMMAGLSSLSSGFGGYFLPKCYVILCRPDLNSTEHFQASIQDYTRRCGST
T1 sequence (Q7RTX0 21-852 C757R): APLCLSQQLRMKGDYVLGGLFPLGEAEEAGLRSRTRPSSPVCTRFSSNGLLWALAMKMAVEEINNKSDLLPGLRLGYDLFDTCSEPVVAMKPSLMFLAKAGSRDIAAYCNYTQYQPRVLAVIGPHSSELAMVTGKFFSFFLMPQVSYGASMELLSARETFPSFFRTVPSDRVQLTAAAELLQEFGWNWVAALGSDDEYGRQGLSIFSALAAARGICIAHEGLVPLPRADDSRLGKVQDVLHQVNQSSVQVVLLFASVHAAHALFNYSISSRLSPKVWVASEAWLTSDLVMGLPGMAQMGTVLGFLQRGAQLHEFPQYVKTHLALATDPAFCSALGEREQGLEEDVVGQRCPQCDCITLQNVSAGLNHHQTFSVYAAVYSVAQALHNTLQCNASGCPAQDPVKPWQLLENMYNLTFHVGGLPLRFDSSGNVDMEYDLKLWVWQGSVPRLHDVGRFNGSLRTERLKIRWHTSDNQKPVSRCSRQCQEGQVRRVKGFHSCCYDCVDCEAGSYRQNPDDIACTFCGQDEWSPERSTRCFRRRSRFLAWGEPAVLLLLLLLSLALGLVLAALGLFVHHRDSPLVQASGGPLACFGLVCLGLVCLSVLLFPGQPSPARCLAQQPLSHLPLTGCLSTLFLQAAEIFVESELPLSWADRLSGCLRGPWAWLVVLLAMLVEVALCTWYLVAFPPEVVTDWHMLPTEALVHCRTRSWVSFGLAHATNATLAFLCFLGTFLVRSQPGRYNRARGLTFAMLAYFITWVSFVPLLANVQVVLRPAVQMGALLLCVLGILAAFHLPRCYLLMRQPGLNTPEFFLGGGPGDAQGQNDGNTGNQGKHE
Test: Umami cell-based calcium flux assay, HEK293T cells expressing T1R1, T1R3 and mouse Gα15
Settings: FIG. 6; high density, coated plates, low glucose media, serum deprivation

O=C(CO)[C@@H](O)[C@H](O)[C@H](O)CO [fructose]
response of cells grown in the "Final" growth conditions: not
